Measured values taken from PMC4786716, “Biophysical Characterization and Activity of Lymphostatin, a Multifunctional Virulence Factor of Attaching and Effacing Escherichia coli” (The Journal of Biological Chemistry, 2016).

Target: T1, lymphostatin (LifA; rLifA) (Escherichia coli, UniProt B7UI23)
T1 construct: gene E2348C_3234; full-length, C-terminal His6 tag kept, expressed in E. cloni (E. coli K-12) from pRham; 3229 residues as printed, 365 kDa, monomer
Experiment: intrinsic tryptophan fluorescence titration (ex […] nm, em […] nm)
Format: binding

Structure (SMILES): CC(=O)N[C@H]1[C@@H](OP(=O)(O)OP(=O)(O)OC[C@H]2O[C@@H](n3ccc(=O)[nH]c3=O)[C@H](O)[C@@H]2O)O[C@H](CO)[C@@H](O)[C@@H]1O [UDP-GlcNAc]
- Kd: 120 ± 30 µM
